US20250214942A1, “INHIBITORS OF RECEPTOR INTERACTING PROTEIN KINASE I FOR THE TREATMENT OF DISEASE” (Board of Regents, The University of Texas System, priority 2019, published 2025)
Where two headings read alike, the source gives them in different places.

Key:
[1] = test system: human monocytic cell line U937; test: Human U937 cellular necroptosis assay (TNFalpha + z-VAD-FMK, Cell Titer-Glo viability); type: cell-based; conditions: U937 cells, 25 ng/mL human TNFalpha + 25 μM z-VAD-FMK, read-out: hU937 Avg IC50
In short: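 Readout is CellTiter-Glo 2.0 luminescence after 22 h at 37° C with compound, in cells triggered by human TNFalpha (25 ng/mL) and z-VAD-FMK (25 μM) in phenol red-free RPMI/10% FBS. Values are run-averaged IC50s from a four-parameter logistic curve.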

RIPK1 = RIPK1 (Homo sapiens (Human), UniProt Q13546); test: ADP-Glo kinase assay (RIPK1 activity, conversion of ATP to ADP); type: biochemical; conditions: for IC50: 5 nM RIPK1, 50 μM ATP, 6 h reaction, read-out: RIPK1 Enzyme Avg IC50
In short: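 RIPK1 (5 nM final) was preincubated 10 min at rt with 1:3-diluted compounds in HEPES pH 7.5/MgCl2/DTT/BSA/CHAPS buffer. ATP (50 μM final) was then added for 6 h, and ADP formed was read by ADP-Glo luminescence. IC50 values came from four-parameter logistic fitting.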

Chain of RIPK1 (Q13546 1-327): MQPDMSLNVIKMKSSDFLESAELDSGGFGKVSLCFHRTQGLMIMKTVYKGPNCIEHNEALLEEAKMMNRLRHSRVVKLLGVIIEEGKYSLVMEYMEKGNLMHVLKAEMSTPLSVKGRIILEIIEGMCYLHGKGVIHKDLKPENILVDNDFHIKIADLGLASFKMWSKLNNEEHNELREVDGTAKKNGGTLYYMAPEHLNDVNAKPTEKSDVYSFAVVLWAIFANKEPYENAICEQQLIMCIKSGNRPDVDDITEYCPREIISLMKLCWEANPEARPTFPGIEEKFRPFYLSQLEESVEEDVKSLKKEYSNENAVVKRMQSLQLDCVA

| SMILES | IC50 (RIPK1) [µM] | observed potency relative to the other enantiomer (RIPK1; enantiomers separated by SFC, assay not named) | IC50 ([1]; Homo sapiens, U-937, 22 h) [µM] | IC50 ([1]; 22 h) [µM] |
| --- | --- | --- | --- | --- |
| O=C(N1N=CCC1c1cc(F)cc(F)c1)C12CC(Cn3cc(-c4cnccn4)cn3)(C1)C2 (stereo not shown) [Example 112, (5-(3,5-difluorophenyl)-4,5-dihydro-1H-pyrazol-1-yl)(3-((4-(pyrazin-2-yl)-1H-pyrazol-1-yl)methyl)-bicyclo[1.1.1]pentan-1-yl)-methanone] | 0.073 |  | 0.285 |  |
| N#Cc1ccc2nn(CC34CC(C(=O)N5N=CCC5c5cc(F)cc(F)c5)(C3)C4)cc2c1 (stereo not shown) [Example 61, 2-((3-(5-(3,5-difluorophenyl)-4,5-dihydro-1H-pyrazole-1-carbonyl)bicyclo[1.1.1]-pentan-1-yl)methyl)-2H-indazole-5-carbonitrile] | 0.045 |  | 0.211 |  |
| O=C(N1N=CCC1c1cc(F)cc(F)c1)C12CC(Cn3ccc4ncc(F)cc43)(C1)C2 (stereo not shown) [Example 134, (5-(3,5-difluorophenyl)-4,5-dihydro-1H-pyrazol-1-yl)(3-((6-fluoro-1H-pyrrolo[3,2-b]-pyridin-1-yl)methyl)-bicyclo[1.1.1]pentan-1-yl)methanone] | 0.024 |  | 0.046 |  |
| N#Cc1ccnc(OCC23CC(C(=O)N4CC(F)CC4c4cccc(F)c4)(C2)C3)c1 (stereo not shown) [Example 26, 2-((3-(4-Fluoro-2-(3-fluorophenyl)pyrrolidine-1-carbonyl)-bicyclo[1.1.1]pentan-1-yl)methoxy)isonicotinonitrile] | 0.059 |  | 0.472 |  |
| Cn1c(=O)n(CC23CC(C(=O)N4N=CCC4c4cc(F)cc(F)c4)(C2)C3)c2ccccc21 (stereo not shown) [Example 110, 1-((3-(5-(3,5-difluorophenyl)-4,5-dihydro-1H-pyrazole-1-carbonyl)bicyclo[1.1.1]-pentan-1-yl)methyl)-3-methyl-1,3-dihydro-2H-benzo[d]imidazol-2-one] | 0.134 |  | 0.734 |  |
| N#Cc1cnc2ncn(CC34CC(C(=O)N5N=CCC5c5cc(F)cc(F)c5)(C3)C4)c2c1 (stereo not shown) [Example 184, 1-((3-(5-(3,5-difluorophenyl)-4,5-dihydro-1H-pyrazole-1-carbonyl)bicyclo[1.1.1]-pentan-1-yl)methyl)-1H-imidazo[4,5-b]pyridine-6-carbonitrile or 3-((3-(5-(3,5-difluorophenyl)-4,5-dihydro-1H-pyrazole-1-carbonyl)bicyclo[1.1.1]pentan-1-yl)methyl)-3H-imidazo[4,5-b]pyridine-6-carbonitrile] | 0.136 |  |  | 1.24 |
| O=C(N1N=CCC1c1cc(F)cc(F)c1)C12CC(Cn3ncc4cncc(Cl)c43)(C1)C2 (stereo not shown) [Example 68, (3-((7-chloro-1H-pyrazolo-[4,3-c]pyridin-1-yl)methyl)-bicyclo[1.1.1]pentan-1-yl)(5-(3,5-difluorophenyl)-4,5-dihydro-1H-pyrazol-1-yl)methanone] | 0.02 |  | 0.034 |  |
| O=C(N1CC(F)CC1c1cccc(F)c1)C12CC(Cn3cc4cc(F)ccc4n3)(C1)C2 (stereo not shown) [Example 106, (4-fluoro-2-(3-fluorophenyl)-pyrrolidin-1-yl)(3-((5-fluoro-2H-indazol-2-yl)methyl)-bicyclo[1.1.1]pentan-1-yl)methanone] | 0.371 |  | 1.47 |  |
| O=C(N1CC(F)CC1c1cccc(F)c1)C12CC(COc3cc(Br)ncn3)(C1)C2 (stereo not shown) [Example 28, (3-(((6-Bromopyrimidin-4-yl)oxy)methyl)bicyclo[1.1.1]pentan-1-yl)(4-fluoro-2-(3-fluorophenyl)pyrrolidin-1-yl)methanone] | 0.032 |  | 0.193 |  |
| O=C(N1CC(F)CC1c1cccc(F)c1)C12CC(C(F)c3ccccc3)(C1)C2 (stereo not shown) [Example 41, (3-(Fluoro(phenyl)methyl)bicyclo[1.1.1]pentan-1-yl)-(4-fluoro-2-(3-fluorophenyl)pyrrolidin-1-yl)methanone] | 0.031 |  | 0.272 |  |
| Cc1c2cc(C#N)ccc2nn1CC12CC(C(=O)N3N=CCC3c3cncc(F)c3)(C1)C2 (stereo not shown) [Example 129, 2-((3-(5-(5-fluoropyridin-3-yl)-4,5-dihydro-1H-pyrazole-1-carbonyl)bicyclo[1.1.1]-pentan-1-yl)methyl)-3-methyl-2H-indazole-5-carbonitrile] | 0.515 |  | 3.86 |  |

Now from value to molecule, other results behind:

| IC50 (RIPK1) [µM] | observed potency relative to the other enantiomer (RIPK1; enantiomers separated by SFC, assay not named) | SMILES | IC50 ([1]; Homo sapiens, U-937, 22 h) [µM] | IC50 ([1]; 22 h) [µM] |
| --- | --- | --- | --- | --- |
| 0.343 |  | Cc1cncc(C2CC=NN2C(=O)C23CC(Cn4cc(C#N)cn4)(C2)C3)n1 (stereo not shown) [Example 169, 1-((3-(5-(6-methylpyrazin-2-yl)-4,5-dihydro-1H-pyrazole-1-carbonyl)bicyclo[1.1.1]-pentan-1-yl)methyl)-1H-pyrazole-4-carbonitrile] | 3.31 |  |
| 0.093 |  | O=C(N1N=CCC1c1cc(F)cc(F)c1)C12CC(C(O)c3cccc(Cl)c3)(C1)C2 (stereo not shown) [Example 230, (3((3-chlorophenyl)-(hydroxy)methyl)bicyclo-[1.1.1]pentan-1-yl)(5-(3,5-difluorophenyl)-4,5-dihydro-1H-pyrazol-1-yl)methanone] | 0.407 |  |
| 0.042 |  | Cc1cn(CC23CC(C(=O)N4N=CCC4c4cc(F)cc(F)c4)(C2)C3)nc1C#N (stereo not shown) [Example 157, 1-((3-(5-(3,5-difluorophenyl)-4,5-dihydro-1H-pyrazole-1-carbonyl)bicyclo[1.1.1]-pentan-1-yl)methyl)-4-methyl-1H-pyrazole-3-carbonitrile] | 0.17 |  |
| 0.0091 |  | N#Cc1cncc(C2CC=NN2C(=O)C23CC(Cn4ncc5cc(C#N)ccc54)(C2)C3)c1 (stereo not shown) [Example 173, 1-((3-(5-(5-cyanopyridin-3-yl)-4,5-dihydro-1H-pyrazole-1-carbonyl)bicyclo[1.1.1]-pentan-1-yl)methyl)-1H-indazole-5-carbonitrile] | 0.053 |  |
| 0.026 |  | O=C(N1N=CCC1c1cc(F)cc(F)c1)C12CC(COc3cc(F)ccc3F)(C1)C2 (stereo not shown) [Example 338, (3-((2,5-difluorophenoxy)-methyl)bicyclo[1.1.1]pentan-1-yl)(5-(3,5-difluorophenyl)-4,5-dihydro-1H-pyrazol-1-yl)methanone] | 0.165 |  |
| 4.67 |  | Cc1csc(C2CC=NN2C(=O)C23CC(Cn4cc(C#N)cn4)(C2)C3)n1 (stereo not shown) [Example 170, 1-((3-(5-(4-methylthiazol-2-yl)-4,5-dihydro-1H-pyrazole-1-carbonyl)bicyclo[1.1.1]-pentan-1-yl)methyl)-1H-pyrazole-4-carbonitrile] | 9.89 |  |
|  | less potent isomer | Cc1cc(F)c([C@H]2CC=NN2C(=O)C23CC(COc4cnc(C#N)cn4)(C2)C3)cc1F [Example 196, (R)-5-((3-(5-(2,5-difluoro-4-methylphenyl)-4,5-dihydro-1H-pyrazole-1-carbonyl)bicyclo[1.1.1]pentan-1-yl)methoxy)pyrazine-2-carbonitrile] | 0.631 |  |
| 0.03 |  | O=C(N1N=CCC1c1ccccc1)C12CC(Cn3ncc4ncccc43)(C1)C2 (stereo not shown) [Example 147, (3-((1H-pyrazolo[4,3-b]-pyridin-1-yl)methyl)-bicyclo[1.1.1]pentan-1-yl)(5-phenyl-4,5-dihydro-1H-pyrazol-1-yl)methanone] | 0.142 |  |
| 0.024 |  | O=C(N1N=CCC1c1cc(F)cc(F)c1)C12CC(Cn3ccn4nccc34)(C1)C2 (stereo not shown) [Example 158, (3-((1H-imidazo[1,2-b]-pyrazol-1-yl)methyl)-bicyclo[1.1.1]pentan-1-yl)(5-(3,5-difluorophenyl)-4,5-dihydro-1H-pyrazol-1-yl)methanone] | 0.062 |  |
| 0.103 |  | N#Cc1ncn(CC23CC(C(=O)N4N=CCC4c4cc(F)cc(F)c4)(C2)C3)n1 (stereo not shown) [Example 178, 1-((3-(5-(3,5-difluorophenyl)-4.5-dihydro-1H-pyrazole-1-carbonyl)bicyclo[1.1.1]-pentan-1-yl)methyl)-1H-1,2,4-triazole-3-carbonitrile] | 0.228 |  |
| 0.169 |  | O=C(N1N=CCC1c1cc(F)cc(F)c1)C12CC(Cn3ncc4c3CCC4)(C1)C2 (stereo not shown) [Example 145, (5-(3,5-difluorophenyl)-4,5-dihydro-1H-pyrazol-1-yl)(3-((5,6-dihydrocyclopenta[c]-pyrazol-1(4H)-yl)methyl)-bicyclo[1.1.1]pentan-1-yl)methanone] | 0.701 |  |
| 0.016 |  | N#Cc1cccc(C2CC=NN2C(=O)C23CC(Cn4ncc5cc(C#N)ccc54)(C2)C3)c1 (stereo not shown) [Example 175, 1-((3-(5-(3-cyanophenyl)-4,5-dihydro-1H-pyrazole-1-carbonyl)bicyclo[1.1.1]-pentan-1-yl)methyl)-1H-indazole-5-carbonitrile] | 0.047 |  |
| 0.113 |  | N#Cc1cnn(CC23CC(C(=O)N4N=CCC4c4ccccc4)(C2)C3)c1 (stereo not shown) [Example 138, 1-((3-(5-phenyl-4,5-dihydro-1H-pyrazole-1-carbonyl)-bicyclo[1.1.1]pentan-1-yl)methyl)-1H-pyrazole-4-carbonitrile] | 0.417 |  |
| 0.095 |  | N#Cc1cccc(C2CC=NN2C(=O)C23CC(Cn4ncc5ncccc54)(C2)C3)c1 (stereo not shown) [Example 139, 3-(1-(3-((1H-pyrazolo[4,3-b]-pyridin-1-yl)methyl)bicyclo-[1.1.1]pentane-1-carbonyl)-4,5-dihydro-1H-pyrazol-5-yl)benzonitrile] | 0.493 |  |
| 0.013 |  | O=C(N1N=CCC1c1cc(F)cc(F)c1)C12CC(COc3ccc(Br)cc3F)(C1)C2 (stereo not shown) [Example 331, (3-((4-bromo-2-fluoro-phenoxy)methyl)bicyclo-[1.1.1]pentan-1-yl)(5-(3,5-difluorophenyl)-4,5-dihydro-1H-pyrazol-1-yl)methanone] | 0.028 |  |
